Measurements published in publication PMC6374188 (Organic & biomolecular chemistry, 2019).

Key:
GlbB [1] = molecular target: T1, GlbB (Caldimonas brevitalea, UniProt A8KCI8); assay: steady-state kinetics of hydroxylation; assay type: biochemical; conditions: Fe(II)/alpha-ketoglutarate-dependent C4 hydroxylation
T1 sequence (A8KCI8 1-286): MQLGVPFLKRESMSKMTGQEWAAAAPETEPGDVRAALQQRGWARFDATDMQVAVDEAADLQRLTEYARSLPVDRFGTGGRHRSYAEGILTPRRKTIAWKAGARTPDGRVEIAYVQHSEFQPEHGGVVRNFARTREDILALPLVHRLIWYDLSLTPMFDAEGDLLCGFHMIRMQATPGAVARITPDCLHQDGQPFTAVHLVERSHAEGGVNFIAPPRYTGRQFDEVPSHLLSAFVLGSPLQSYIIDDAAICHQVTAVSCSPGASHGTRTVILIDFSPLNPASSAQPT

GlbB [2] = molecular target: T1, GlbB; assay: steady-state kinetics of oxidation; assay type: biochemical; conditions: Fe(II)/alpha-ketoglutarate-dependent; product is the sulfoxide

Row | Compound | KM (GlbB [1]) | KM (GlbB [2])
1 | CC(C)C[C@H](N)C(=O)O [L-Leu] | steady-state kinetic parameters were obtained for hydroxylation of L-Lys, L-Leu, and L-Met (Figure S5) | 
2 | CSCC[C@H](N)C(=O)O [L-Met] |  | steady-state kinetic parameters were obtained for hydroxylation of L-Lys, L-Leu, and L-Met (Figure S5)
3 | NCCCC[C@H](N)C(=O)O [compound 3, L-Lys] | steady-state kinetic parameters were obtained for hydroxylation of L-Lys, L-Leu, and L-Met (Figure S5) | 
